The values below are quoted from earlier work in US20200114015A1, “Novel Alpha-Hydroxy Carboxylic Acid And Derivatives And Other GRAS- Based Prodrugs Of Gamma-Hydroxybutyrate (GHB) And Uses Thereof” (priority 2017, published 2020).

For this series the following is noted: GHB marketed as Xyrem.

Molecules are shown by their SMILES.

For the compound `O=C(O)CCCO` [GHB, gamma-hydroxybutyrate], the bioavailability – broadly, the share of a dose that reaches the circulation, judged against a reference dose that is usually intravenous – is on record as roughly 25% and the half life is 30 to 60 min.
